# From article PMC12051620, “Molecular basis underlying the specificity of an antagonist AA92593 for mammalian melanopsins” (The Journal of Biological Chemistry, 2025)
# Experiments:
# Assay in all cases: GsX GloSensor assay with Gsα/q11
# Type in all cases: cell-based
# [1] = test system: human melanopsin S269^6.52A mutant; settings: 16.7 μM AA92593, COS-1 cells
# Excerpt: (§1) We substituted the residues Phe-94^2.61, Ser-188^ECL2, and Ser-269^6.52 in human melanopsin (Fig. 2, A and B) and examined the inhibitory effect of AA92593 on these mutants. Substitution of these amino acid residues with the corresponding amino acids in non-mammalian-type melanopsins (F94^2.61C, S188^ECL2T, and S269^6.52A) reduced the inhibitory effect of AA92593 compared to its effect on WT (Fig. 2, C–E). […] The antagonistic effect of AA92593 was reduced by ∼21% and ∼24% in the S188^ECL2T and S269^6.52A mutants, respectively (Fig. 2, D, E, and G). […] The volume change in side chain would affect arrangement of the amino acid residues around AA92593 (see below).
# (§2) For GloSensor assay, opsins, GloSensor assay sensor (coded by pGlo-22F), and NanoBiT-tagged G proteins were transiently expressed in COS-1 cells (kindly provided from Dr David Farrens, Oregon Health and Science University) using PEI as described previously ([24], [52]). For the GsX GloSensor assay ([12], [13]), each well of a 96-well assay plate (Corning) was transfected with 50 ng opsin plasmid, 16.7 ng G protein plasmid, 50 ng pGlo-22F plasmid (Promega), and 500 ng PEI in 25 μl Opti-mem and 75 μl Dulbecco's modified Eagle's medium (D-MEM). […] For GFP-fluorescence microscopy, a 35-mm cell culture dish (IWAKI) was transfected with 2 μg melanopsin-GFP plasmid and 8 μg PEI in 400 μl Opti-mem and 1.2 ml D-MEM. […]
# (§3) The transfected COS-1 cells were incubated at 37 °C, 5% CO2 for 2 days, and the medium was aspirated and exchanged with 50 μl of HBSS (145 mM NaCl, 10 mM D-glucose, 5 mM KCl, 1 mM MgCl2, 1.7 mM CaCl2, 1.5 mM NaHCO3, 10 mM Hepes, pH 7.4), containing 33.3, 20, 10, 2, 0.2, 0.02, 0.002, or 0 μM AA92593, 0.5% dimetyl sulfoxide (DMSO), and 4% (vol/vol) GloSensor cAMP reagent stock solution. […] Then, the cells were incubated at room temperature for 1 h, and luminescence changes were monitored. After incubation of the cells with AA92593, luminescence measurement was interrupted, the plate was ejected, and the cells were added with 50 μl of HBSS containing 0.2 μM 9-cis-retinal. […] Luminescence was measured using GM-2000 or GM-3510 microplate reader (Promega). Luminescence level of each well was measured every 30 s with integration time of 0.6 to 0.9 s. To illuminate opsins, luminescence measurement was interrupted, the plate was ejected, and the plate was illuminated by white light with CN-160 LED video light (light intensity, ∼9 mW/cm^2) (NEEWER). […] After illumination, luminescence measurement was resumed. The measured luminescence levels were normalized to the level at the starting point (time = 0 min). […]
# [2] = target: T1, human melanopsin F94^2.61C mutant (Homo sapiens, UniProt Q9UHM6, F127C); settings: 16.7 μM AA92593, COS-1 cells, difference not statistically significant
# T1 construct: the C-terminal amino acid residues (94, 140, 200, 214, 296, and 308 residues); expressed in transfected cells; host or cells: COS-1
# Excerpt: as §1, §2, §3
# [3] = test system: human melanopsin S188^ECL2T mutant; settings: 16.7 μM AA92593, COS-1 cells
# Excerpt: as §1, §2, §3
# [4] = target: T2, human melanopsin S188^ECL2A mutant (Homo sapiens, UniProt Q9UHM6, S222A); settings: 16.7 μM AA92593, COS-1 cells
# T2 construct: expressed in transfected cells; host or cells: COS-1
# Excerpt: as §1, §2, §3
# T2 sequence (Q9UHM6 1-384 S222A limits assumed): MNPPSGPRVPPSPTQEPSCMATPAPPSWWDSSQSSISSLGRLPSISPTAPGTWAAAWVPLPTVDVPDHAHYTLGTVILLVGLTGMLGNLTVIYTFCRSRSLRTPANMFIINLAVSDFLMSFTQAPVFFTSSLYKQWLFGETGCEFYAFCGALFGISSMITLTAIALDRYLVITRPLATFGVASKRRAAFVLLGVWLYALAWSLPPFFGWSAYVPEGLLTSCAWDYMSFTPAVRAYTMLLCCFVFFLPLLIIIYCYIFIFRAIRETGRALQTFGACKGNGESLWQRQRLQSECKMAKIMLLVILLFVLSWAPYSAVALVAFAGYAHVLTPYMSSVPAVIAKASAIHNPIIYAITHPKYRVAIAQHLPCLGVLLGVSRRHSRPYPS
# T1 sequence (Q9UHM6 1-384 F127C limits assumed): as the sequence (Q9UHM6 1-384 S222A limits assumed) above, with F127C, A222S counted along it
structure (smiles),measurement,setting,value
COc1ccc(S(=O)(=O)N2CCCCC2)cc1C [AA92593],reduction of the antagonistic effect of AA92593 vs WT,[1],~24%
same,inhibitory effect of AA92593 compared to WT,[2],consistently weaker
same,reduction of the antagonistic effect of AA92593 vs WT,[3],~21%
same,change in the effect of AA92593 vs WT,[4],did not induce a significant change
